According to patent US20220226272A1, “DIETARY BUTYRATE AND ITS USES” (SOCIETE DES PRODUITS NESTLE S.A., priority 2019, published 2022):

What was measured:
[1] = system: rabbit gastric lipase (RGL) followed by porcine pancreatic lipase (PPL); test: Sequential in vitro digestion SGF followed by SIF, pH-stat; format: in vitro ADME
Method: (§1) The lipid emulsion (2 mL) containing 200 mg of fat was subjected to gastrointestinal in vitro lipolysis. […] For gastric digestion, the sample was incubated for 90 minutes with 8.5 mL of simulated gastric fluid (SGF), which consisted of 150 mM NaCl, 450 U/mL pepsin, 18 U/mL rabbit gastric lipase at 37° C. and a pH of 5.5.
The intestinal digestion step was performed in the pH stat where the pH was kept constant at 6.8 by addition of NaOH (0.05 M). […] The intestinal digestion step starts when the temperature reaches 37±0.5° C. The pH was adjusted to pH 6.8 and after incubation of two minutes at this pH and temperature, a pancreatin solution (5 mM tris, 150 mM NaCl at pH 6.8) was added. The final composition of the intestinal fluid was 10 mM CaCl2, 12 mM mixed bile salts, 0.75 mM phospholipid, 150 mM NaCl and 4 mM tris(hydroxymethyl)aminomethane buffer. The intestinal digestion step was carried out for 3 hours in a titration manager from Radiometer. During the intestinal phase of digestion, the kinetics of digestion were followed using a pH-stat (TIM856, Radiometer) technique and expressed as titratable acid (rather than fatty acid) that was calculated by the equation:
TA: Total titratable acid released, mmol; VNaOH: volume of NaOH used to titrate the released acid in 3 h, m L.
(§2) Since the digestion of dietary lipids involves lipases of both gastric and intestinal origin, lipid digestibility was assessed using two digestion models i) simulated intestinal fluid (SIF) with porcine pancreatic lipase (PPL) and ii) sequential digestion in simulated gastric fluid (SGF) with rabbit gastric lipase (RGL) followed by simulated intestinal fluid (SIF) with porcine pancreatic lipase (PPL).

[2] = molecular target: T1, porcine pancreatic lipase (PPL) (Sus scrofa, UniProt P00591); test: In vitro digestion in simulated intestinal fluid (SIF), pH-stat; format: in vitro ADME; settings: SIF alone; 200 mg fat emulsion, pH 6.8, 37° C.
T1 construct: by porcine pancreatic lipase (from pancreatin); purchased Sigma-Aldrich P7585; host or cells: porcine pancreas extract (pancreatin)
T1 sequence (P00591 1-450): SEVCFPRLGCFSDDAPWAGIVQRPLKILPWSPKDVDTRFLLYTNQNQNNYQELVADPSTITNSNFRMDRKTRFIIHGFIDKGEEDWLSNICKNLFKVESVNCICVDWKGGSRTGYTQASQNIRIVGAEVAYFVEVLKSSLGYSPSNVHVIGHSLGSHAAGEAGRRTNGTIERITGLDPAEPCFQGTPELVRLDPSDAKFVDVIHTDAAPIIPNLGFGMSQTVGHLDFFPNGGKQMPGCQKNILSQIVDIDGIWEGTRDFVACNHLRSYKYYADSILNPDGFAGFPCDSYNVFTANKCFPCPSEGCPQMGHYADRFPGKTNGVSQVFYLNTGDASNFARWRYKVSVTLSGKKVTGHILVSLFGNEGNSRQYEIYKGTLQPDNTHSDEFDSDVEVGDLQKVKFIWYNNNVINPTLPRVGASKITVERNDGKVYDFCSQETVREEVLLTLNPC
T1 sequence (P02703 23-112 partner): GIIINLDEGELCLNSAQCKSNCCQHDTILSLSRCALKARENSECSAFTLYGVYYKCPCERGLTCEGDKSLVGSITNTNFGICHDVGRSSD
Method: as §1
The intestinal digestion step was performed in the pH stat where the pH was kept constant at 6.8 by addition of NaOH (0.05 M). […] The intestinal digestion step starts when the temperature reaches 37±0.5° C. The pH was adjusted to pH 6.8 and after incubation of two minutes at this pH and temperature, a pancreatin solution (5 mM tris, 150 mM NaCl at pH 6.8) was added. […] During the intestinal phase of digestion, the kinetics of digestion were followed using a pH-stat (TIM856, Radiometer) technique and expressed as titratable acid (rather than fatty acid) that was calculated by the equation: […]
as §2

CCCC(=O)OCC(COC(=O)CCC)OC(=O)CCC [tributyrin]
initial lipolysis rate in SIF compartment ([1]; SGF-SIF sequential digestion, 200 mg fat emulsion): 44.1 ± 8.8 µmol/min
hydrolysis in the stomach (gastric lipolysis), in words ([1]; gastric compartment of the model): extensive hydrolysis
lipolysis by gastric lipase ([1]; indicated by decreased total fatty acid release in SIF after RGL pre-exposure): ~60%
initial rate of lipolysis [2]: 223 ± 59 µmol/min
